From patent US12479827B2, “Heteroaromatic carboxamide derivatives as plasma kallikrein inhibitors” (Boehringer Ingelheim International GmbH, priority 2020, dated 2025)

target: T1, Human PKK (Homo sapiens, UniProt P03952); assay: Inhibition of PKK using an endpoint assay (human PKK); assay type: biochemical; conditions: fluorogenic substrate H-Pro-Phe-Arg-AMC, 1 h room temperature, method names human or rat PKK, table does not say which
T1 construct: purchased Enzyme Research Laboratories
Description: The ability of compounds of formula (I) to inhibit plasma kallikrein (PKK), Factor XIIa (FXIIa), Factor XIa (FXIa), Factor Xa (FXa), Factor IIa (alpha-thrombin; FIIa), plasmin, trypsin, tissue kallikrein 1 (TK1), Factor VIIa (FVIIa), or FVIIa complexed with Tissue Factor, phospholipids and CaCl2 (FVIIa/TF/PL/CaCl2) is determined using the following biochemical assays in assay buffer (100 mM Tris, 150 mM NaCL, adjusted to a pH of 7.8 with HCl, and containing 0.1% (w/v) BSA and 0.05% (v/v) Tween20) in the presence of 1% (v/v) DMSO:
Subsequently, PPACK II (Calbiochem) is added as a stop solution to achieve a final concentration of 1 μM and fluorescence is measured using an Envision Reader (PerkinElmer) with the wavelength excitation setting of 355 nm and the wavelength emission setting of 460 nm.

T1 sequence (P03952 20-390 limits assumed): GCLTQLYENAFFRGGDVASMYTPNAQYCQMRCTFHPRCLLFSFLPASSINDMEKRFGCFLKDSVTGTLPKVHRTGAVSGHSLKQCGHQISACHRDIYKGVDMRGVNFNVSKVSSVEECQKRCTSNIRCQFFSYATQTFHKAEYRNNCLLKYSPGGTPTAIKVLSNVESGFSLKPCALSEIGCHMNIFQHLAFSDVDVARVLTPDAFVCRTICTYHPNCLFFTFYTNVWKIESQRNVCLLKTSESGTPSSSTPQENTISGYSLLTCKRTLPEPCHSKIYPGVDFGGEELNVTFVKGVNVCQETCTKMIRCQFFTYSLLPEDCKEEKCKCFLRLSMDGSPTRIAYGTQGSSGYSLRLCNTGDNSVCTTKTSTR
T1 sequence (P03952 391-638 limits assumed): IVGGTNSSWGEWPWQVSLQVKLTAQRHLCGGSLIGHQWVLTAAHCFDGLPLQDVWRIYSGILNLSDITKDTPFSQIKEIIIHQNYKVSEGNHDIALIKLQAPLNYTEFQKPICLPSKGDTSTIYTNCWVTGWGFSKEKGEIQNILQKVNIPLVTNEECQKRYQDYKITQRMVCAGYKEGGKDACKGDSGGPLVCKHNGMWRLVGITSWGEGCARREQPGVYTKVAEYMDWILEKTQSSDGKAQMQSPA

IC50 [nM] | SMILES
14.2 | Cn1cnc2c1CC[C@H]2NC(=O)c1cnn(Cc2ccc(N3CC4(CC4)C3)cn2)c1 [Example 19, 1-[(5-{5-Azaspiro[2.3]hexan-5-yl}pyridin-2-yl)-methyl]-N-[(4R)-1-methyl-1H,4H,5H,6H-cyclopenta[d]imidazol-4-yl]-1H-pyrazole-4-carboxamide]
3.4 | Cn1cnc2c1CC[C@H]2NC(=O)c1cn(Cc2ccc(N3CC4CC4C3)nc2OC(F)(F)F)cn1 (stereo partly drawn) [Example 38, 1-[(6-{3-Azabicyclo[3.1.0]hexan-3-yl}-2-(trifluoromethoxy)-pyridin-3-yl)methyl]-N-[(4R)-1-methyl-1H,4H,5H,6H-cyclopenta[d]imidazol-4-yl]-1H-imidazole-4-carboxamide]
2.5 | Cn1cnc2c1CC[C@H]2NC(=O)c1cnn(Cc2ccc(N3CC4CC4C3)nc2OC(F)(F)F)c1 (stereo partly drawn) [Example 58, 1-[(6-{3-Azabicyclo[3.1.0]hexan-3-yl}-2-(trifluoromethoxy)-pyridin-3-yl)methyl]-N-[(4R)-1-methyl-1H,4H,5H,6H-cyclopenta[d]imidazol-4-yl]-1H-pyrazole-4-carboxamide]
0.4 | CC(CO)c1nc(N2CC3CC3C2)ccc1Cn1cc(C(=O)N[C@@H]2CCc3c2ncn3C)cn1 (stereo partly drawn) [Example 59, 1-[(6-{3-Azabicyclo[3.1.0]hexan-3-yl}-2-(1-hydroxypropan-2-yl)pyridin-3-yl)methyl]-N-[(4R)-1-methyl-1H,4H,5H,6H-cyclopenta[d]imidazol-4-yl]-1H-pyrazole-4-carboxamide]
18.8 | Cn1cnc2c1CC[C@H]2NC(=O)c1cnn(Cc2ccc(N3CC4CC4C3)nn2)c1 (stereo partly drawn) [Example 60, 1-[(6-{3-Azabicyclo[3.1.0]hexan-3-yl}pyridazin-3-yl)methyl]-N-[(4R)-1-methyl-1H,4H,5H,6H-cyclopenta[d]imidazol-4-yl]-1H-pyrazole-4-carboxamide]
3.1 | Cn1cnc2c1CC[C@H]2NC(=O)c1cn(Cc2ccc(N3CC4(CC4)C3)nc2CO)nn1 [Example 61, 1-[(6-{5-Azaspiro[2.3]hexan-5-yl}-2-(hydroxymethyl)-pyridin-3-yl)methyl]-N-[(4R)-1-methyl-1H,4H,5H,6H-cyclo-penta[d]imidazol-4-yl]-1H-1,2,3-triazole-4-carboxamide]
5.6 | CC(C)Cc1nc(N2CC3CC3C2)ccc1Cn1cnc(C(=O)N[C@@H]2CCc3c2ncn3C)c1 (stereo partly drawn) [Example 100, 1-[(6-{3-Azabicyclo[3.1.0]hexan-3-yl}-2-(2-methylpropyl)pyridin-3-yl)methyl]-N-[(4R)-1-methyl-1H,4H,5H,6H-cyclopenta[d]imidazol-4-yl]-1H-imidazole-4-carboxamide]
23.7 | Cc1cc(Cn2cnc(C(=O)N[C@@H]3CCc4c3ncn4C)c2)c(C)nc1N1CC2CC2C1 (stereo partly drawn) [Example 129, 1-[(6-{3-Azabicyclo[3.1.0]hexan-3-yl}-2,5-dimethylpyridin-3-yl)methyl]-N-[(4R)-1-methyl-1H,4H,5H,6H-cyclopenta[d]imidazol-4-yl]-1H-imidazole-4-carboxamide]
20 | Cc1cc(Cn2cc(C(=O)N[C@@H]3CCc4c3ncn4C)cn2)c(C)nc1N1CC2CC2C1 (stereo partly drawn) [Example 130, 1-[(6-{3-Azabicyclo[3.1.0]hexan-3-yl}-2,5-dimethylpyridin-3-yl)methyl]-N-[(4R)-1-methyl-1H,4H,5H,6H-cyclopenta[d]imidazol-4-yl]-1H-pyrazole-4-carboxamide]
2.2 | Cn1cnc2c1CC[C@H]2NC(=O)c1cn(Cc2ccc(N3CC4C(C3)C4(F)F)cn2)nn1 (stereo partly drawn) [Example 138, 1-[(5-{6,6-Difluoro-3-azabicyclo[3.1.0]hexan-3-yl}pyridin-2-yl)methyl]-N-[(4R)-1-methyl-1H,4H,5H,6H-cyclopenta[d]imidazol-4-yl]-1H-1,2,3-triazole-4-carboxamide]
0.8 | CCc1nc(N2CC3(CC3)C2)ccc1Cc1cc(C(=O)N[C@@H]2CCc3c2ncn3C)on1 [Example 156, 3-[(6-{5-Azaspiro[2.3]hexan-5-yl}-2-ethylpyridin-3-yl)methyl]-N-[(4R)-1-methyl-1H,4H,5H,6H-cyclopenta[d]imidazol-4-yl]-1,2-oxazole-5-carboxamidef]
1.2 | Cn1cnc2c1CC[C@H]2NC(=O)c1cc(Cc2ccc(N3CC4(CC4)C3)nc2Cl)no1 [Example 157, 3-[(6-{5-Azaspiro[2.3]hexan-5-yl}-2-chloropyridin-3-yl)methyl]-N-[(4R)-1-methyl-1H,4H,5H,6H-cyclopenta[d]imidazol-4-yl]-1,2-oxazole-5-carboxamide]
8.1 | Cc1nc(N2CC3(CC3)C2)ncc1Cn1cnc(C(=O)N[C@@H]2CCc3c2ncn3C)c1 [Example 172, 1-[(2-{5-Azaspiro[2.3]hexan-5-yl}-4-methylpyrimidin-5-yl)methyl]-N-[(4R)-1-methyl-1H,4H,5H,6H-cyclopenta[d]imidazol-4-yl]-1H-imidazole-4-carboxamide]
4.2 | Cn1cnc2c1CC[C@H]2NC(=O)c1cn(Cc2ccc(N3CC4C(C3)C4(F)F)nc2)c(Cl)n1 (stereo partly drawn) [Example 176, 2-Chloro-1-[(6-{6,6-difluoro-3-azabicyclo-[3.1.0]hexan-3-yl}pyridin-3-yl)methyl]-N-[(4R)-1-methyl-1H,4H,5H,6H-cyclopenta[d]imidazol-4-yl]-1H-imidazole-4-carboxamide]
19.4 | CCc1nc(N2CC3CC3C2)ccc1Cc1ccc(C(=O)N[C@@H]2CCc3c2ncn3C)s1 (stereo partly drawn) [Example 183, 5-[(6-{3-Azabicyclo[3.1.0]hexan-3-yl}-2-ethylpyridin-3-yl)methyl]-N-[(4R)-1-methyl-1H,4H,5H,6H-cyclopenta[d]imidazol-4-yl]thiophene-2-carboxamide]
22.1 | Cc1nc(N2CC3C(C2)C3(F)F)ccc1Cc1ccc(C(=O)N[C@@H]2CCc3c2ncn3C)o1 (stereo partly drawn) [Example 189, 5-[(6-{6,6-Difluoro-3-azabicyclo[3.1.0]hexan-3-yl}-2-methylpyridin-3-yl)methyl]-N-[(4R)-1-methyl-1H,4H,5H,6H-cyclopenta[d]imidazol-4-yl]furan-2-carboxamide]
169 | Cn1cnc2c1CC[C@H]2NC(=O)c1cnn(Cc2cc(F)c(N3CC4CC4C3)c(F)c2)c1 (stereo partly drawn) [Example 191, 1-[(4-{3-Azabicyclo[3.1.0]hexan-3-yl}-3,5-difluorophenyl)methyl]-N-[(4R)-1-methyl-1H,4H,5H,6H-cyclopenta[d]imidazol-4-yl]-1H-pyrazole-4-carboxamide]
1890 | Cn1cnc2c1CC[C@H]2NC(=O)c1cnc(Cc2cc(F)c(N3CC4CC4C3)c(F)c2)[nH]1 (stereo partly drawn) [Example 192, 2-[(4-{3-azabicyclo[3.1.0]hexan-3-yl}-3,5-difluorophenyl)methyl]-N-[(4R)-1-methyl-1H,4H,5H,6H-cyclopenta[d]imidazol-4-yl]-1H-imidazole-4-carboxamide]
20.3 | Cn1cnc2c1CC[C@H]2NC(=O)c1cnn(Cc2cc(F)c(N3CC4CC4C3)c(C#N)c2)c1 (stereo partly drawn) [Example 195, 1-[(4-{3-azabicyclo[3.1.0]hexan-3-yl}-3-cyano-5-fluorophenyl)methyl]-N-[(4R)-1-methyl-1H,4H,5H,6H-cyclopenta[d]imidazol-4-yl]-1H-pyrazole-4-carboxamide]
13.4 | Cn1cnc2c1CC[C@H]2NC(=O)c1cnn(Cc2cc(C#N)c(N3CC4CC4C3)c(C#N)c2)c1 (stereo partly drawn) [Example 197, 1-[(4-{3-azabicyclo[3.1.0]hexan-3-yl}-3,5-dicyanophenyl)methyl]-N-[(4R)-1-methyl-1H,4H,5H,6H-cyclopenta[d]imidazol-4-yl]-1H-pyrazole-4-carboxamide]
8.6 | Cc1cc(N2CC3CC3C2)c(C#N)cc1Cn1cc(C(=O)N[C@@H]2CCc3c2ncn3C)cn1 (stereo partly drawn) [Example 200, 1-[(4-{3-azabicyclo[3.1.0]hexan-3-yl}-5-cyano-2-methylphenyl)methyl]-N-[(4R)-1-methyl-1H,4H,5H,6H-cyclopenta[d]imidazol-4-yl]-1H-pyrazole-4-carboxamide]
8.3 | Cc1cc(N2CC3CC3C2)ccc1Cn1cnc(C(=O)N[C@@H]2CCc3c2ncn3C)c1 (stereo partly drawn) [Example 205, 1-[(4-{3-azabicyclo[3.1.0]hexan-3-yl}-2-methylphenyl)methyl]-N-[(4R)-1-methyl-1H,4H,5H,6H-cyclopenta[d]imidazol-4-yl]-1H-imidazole-4-carboxamide]
2.8 | COc1nc(N2CC3C(C2)C3(F)F)ccc1Cn1cc(C(=O)N[C@@H]2CCc3c2ncn3C)cn1 (stereo partly drawn) [Example 221, 1-[(6-{6,6-Difluoro-3-azabicyclo[3.1.0]hexan-3-yl}-2-methoxypyridin-3-yl)methyl]-N-[(4R)-1-methyl-1H,4H,5H,6H-cyclopenta[d]imidazol-4-yl]-1H-pyrazole-4-carboxamide]
7540 | Cc1nc(N2CCC3(CC2)CC(C)(O)C3)ncc1Cn1cc(C(=O)N[C@@H]2CCc3c2ncn3C)cn1 [Example 223, 1-[(2-{2-Hydroxy-2-methyl-7-azaspiro[3.5]nonan-7-yl}-4-methylpyrimidin-5-yl)methyl]-N-[(4R)-1-methyl-1H,4H,5H,6H-cyclopenta[d]imidazol-4-yl]-1H-pyrazole-4-carboxamide]
302 | Cc1nc(N2C[C@@H]3[C@H](C#N)[C@@H]3C2)ncc1Cn1cc(C(=O)N[C@@H]2CCc3c2ncn3C)cn1 [Example 224, 1-({2-[(1R,5S,6S)-6-Cyano-3-azabicyclo[3.1.0]Lhexan-3-yl]-4-methylpyrimidin-5-yl}methyl)-N-[(4R)-1-methyl-1H,4H,5H,6H-cyclopenta[d]imidazol-4-yl]-1H-pyrazole-4-carboxamide]
